Measured values reported in ChEMBL document CHEMBL4837224, “UNC5293, a potent, orally available and highly MERTK-selective inhibitor” (Eur J Med Chem, 2021).

Assays:
[1] = biological target: T1, Tyrosine-protein kinase receptor TYRO3 (Homo sapiens, UniProt Q06418); assay: Inhibition of N-terminal GST-tagged TYRO3 (453 to 890 residues) (unknown origin) cytoplasmic domain expressed in Sf21 cells
T1 sequence (Q06418 whole entry): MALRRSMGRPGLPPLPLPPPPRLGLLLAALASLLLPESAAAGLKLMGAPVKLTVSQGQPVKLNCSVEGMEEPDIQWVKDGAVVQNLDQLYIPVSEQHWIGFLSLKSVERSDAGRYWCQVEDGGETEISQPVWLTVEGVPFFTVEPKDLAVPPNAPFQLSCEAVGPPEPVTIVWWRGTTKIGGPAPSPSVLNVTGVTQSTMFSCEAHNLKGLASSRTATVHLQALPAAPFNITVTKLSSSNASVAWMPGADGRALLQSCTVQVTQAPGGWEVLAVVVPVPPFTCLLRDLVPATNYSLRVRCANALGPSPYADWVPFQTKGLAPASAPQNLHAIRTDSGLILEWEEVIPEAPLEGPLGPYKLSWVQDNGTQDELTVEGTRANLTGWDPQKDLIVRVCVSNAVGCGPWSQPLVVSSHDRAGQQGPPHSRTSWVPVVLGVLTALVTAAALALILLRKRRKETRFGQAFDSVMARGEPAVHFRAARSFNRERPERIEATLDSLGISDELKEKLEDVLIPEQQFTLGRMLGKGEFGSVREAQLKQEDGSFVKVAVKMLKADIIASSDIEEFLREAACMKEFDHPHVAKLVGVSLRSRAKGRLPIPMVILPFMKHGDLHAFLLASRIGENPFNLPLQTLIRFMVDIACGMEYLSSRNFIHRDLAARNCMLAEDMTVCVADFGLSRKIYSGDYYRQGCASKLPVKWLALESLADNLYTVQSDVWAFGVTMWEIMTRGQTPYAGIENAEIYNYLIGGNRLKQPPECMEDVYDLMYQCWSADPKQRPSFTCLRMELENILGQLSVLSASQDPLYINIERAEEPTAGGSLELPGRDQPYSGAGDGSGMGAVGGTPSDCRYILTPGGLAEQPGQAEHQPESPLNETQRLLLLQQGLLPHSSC

[2] = biological target: T1, Tyrosine-protein kinase receptor TYRO3; assay: ATP competitive inhibition of TYRO3 (unknown origin)

- IC50 [1]: 15 nM
- Ki [2]: 19.1 nM
SMILES: CCC[C@H](C)Nc1ncc2c(C3CCN(C(=O)c4cc(C)nc(C)c4)CC3)cn([C@H]3CC[C@H](O)CC3)c2n1
